Measured values taken from patent US9566262B2, “Itch suppression by fucoxanthin” (THE RITSUMEIKAN TRUST, priority 2015, dated 2017).
Entries after “also recorded” stand apart in the source; their conditions may differ.

Experiments:
NC/Nga mice [1] = assay: Serum IgE content by ELISA in NC/Nga mice; type: in vivo; details: topical application for 5 weeks, PiCl-sensitized, vs Vaseline
Text: NC/Nga mice (5 weeks old, female) were purchased from Japan SLC, Inc. […] On day 12, day 19, day 26 and day 33 after starting application of Vaseline or fucoxanthin, 0.8% picryl chloride (PiCl) was further applied to the back skin of the mice. The behaviors of the mice were observed by video monitoring. On day 34 after starting application of Vaseline or fucoxanthin, bromodeoxyuridine (BrdU, Nacalai Tesque) (0.[…] weight) was intraperitoneally administered to the mice. At 5 weeks after starting application of Vaseline or fucoxanthin, the time each mouse spent for scratching behavior in 10 minutes was measured by video monitoring. Then, the mice were sacrificed and the auricular lymph node, blood and skin were obtained. Serum IgE content was determined by enzyme-linked immunosorbent assay (ELISA) using Mouse IgE Assay Kit (Morinaga Institute of Biological Science, Inc.). […] BrdU uptake was determined by ELISA using Cell Proliferation ELISA, BrdU (Colorimetric) (Roche Diagnostics K.K.). […] Also, serum IgE levels and swelling of the auricular lymph nodes of the mice were determined in the same manner as described in Example 2.

NC/Nga mice [2] = assay: Scratching behavior (itch) in PiCl-sensitized NC/Nga dermatitis model mice, video monitoring; type: in vivo
Text: On day 12, day 19, day 26 and day 33 after starting application of Vaseline or fucoxanthin, 0.8% picryl chloride (PiCl) was further applied to the back skin of the mice. The behaviors of the mice were observed by video monitoring. On day 34 after starting application of Vaseline or fucoxanthin, bromodeoxyuridine (BrdU, Nacalai Tesque) ([…]) was intraperitoneally administered to the mice. At 5 weeks after starting application of Vaseline or fucoxanthin, the time each mouse spent for scratching behavior in 10 minutes was measured by video monitoring. Then, the mice were sacrificed and the auricular lymph node, blood and skin were obtained. Serum IgE content was determined by enzyme-linked immunosorbent assay (ELISA) using Mouse IgE Assay Kit (Morinaga Institute of Biological Science, Inc.). […] BrdU uptake was determined by ELISA using Cell Proliferation ELISA, BrdU (Colorimetric) (Roche Diagnostics K.K.).
In the same manner as described in Example 2, Vaseline, fucoxanthin or tacrolimus and PiCl were applied to NC/Nga mice. At 5 weeks after starting application of fucoxanthin or tacrolimus, the time spent for scratching behavior per 10 minutes in the mice treated with fucoxanthin was measured and compared to that in the mice treated with tacrolimus. […]

NC/Nga mice [3] = assay: Clinical symptoms of dermatitis in PiCl-sensitized NC/Nga mice; type: in vivo; details: topical application plus PiCl, at 5 weeks
Protocol: Next, we examined the effects of fucoxanthin and astaxanthin on clinical symptoms of dermatitis in NC/Nga mice. In the same manner as described in Example 2, fucoxanthin or astaxanthin and PiCl were applied to NC/Nga mice. […] In the same manner as described in Example 2, Vaseline, fucoxanthin or tacrolimus and PiCl were applied to NC/Nga mice. […] Also, serum IgE levels and swelling of the auricular lymph nodes of the mice were determined in the same manner as described in Example 2.

bone marrow cells = assay: Formation of bone marrow-derived mast cells (BMMCs) from bone marrow cells; type: cell-based, mice; details: 0.1 μM, 1 μM or 10 μM, vs DMSO
Protocol: Bone marrow cells were obtained from 8-week-old female mice and cultured in a medium for conditioning that contained WEHI-3 cells (National Institute of Biomedical Innovation, Health and Nutrition). The culture was performed according to the method described in Yamashita, U. et al. (2005) “Strain difference of murine bone marrow-derived mast cell functions.” J. Leukoc. Biol. 78(3): 605-611. The bone marrow cells were treated with 0.1 μM, 1 μM or 10 μM fucxanthin, or dimethyl sulfoxide (DMSO) as a control. The number of BMMCs containing 10 fields (100 μm×100 μm) per well was counted (FIG. 2C).

CC(=O)O[C@H]1CC(C)(C)C(=C=C/C(C)=C/C=C/C(C)=C/C=C/C=C(C)/C=C/C=C(\C)C(=O)C[C@@]23O[C@]2(C)C[C@@H](O)CC3(C)C)[C@](C)(O)C1 [fucoxanthin]
serum IgE level (NC/Nga mice [1]): neither ear swelling (FIG. 9A) nor serum IgE level (FIG. 9B) were affected; also recorded: did not vary | time spent for scratching behavior in 10 minutes (NC/Nga mice [2]; applied daily to back skin (0.1% (w/w) fucoxanthin in Vaseline), PiCl sensitization, at 5 weeks, vs Vaseline-applied mice): attenuated; also recorded: remarkably shorter | speed of action on itch compared with tacrolimus (NC/Nga mice [2]; topical application, PiCl-sensitized NC/Nga mice, scratching time per 10 minutes): faster-acting than tacrolimus | clinical symptoms of dermatitis (AD symptoms) (NC/Nga mice [3]): remarkably improved; also recorded: almost completely did; also recorded: ameliorated clinical symptom of dermatitis | BMMC formation (number of BMMCs) (bone marrow cells): suppressed BMMC formation in a dose-dependent manner
